Results from patent US10881656B2, “HIF inhibitors and use thereof” (The General Hospital Corporation, priority 2008, dated 2021).
“And” between values parts separate entries of the source, which are not always exact repeats. Equal entries are not always repeated.

Experiments:
[1] = system: HIF-2a mRNA translation; test: 35S-methionine pulse-label immunoprecipitation of HIF-2a (translation); format: cell-based, human; settings: 786-O cells
Method: Cells were treated with medium only, DMSO, or compound as described for western blots. Following the second day of treatment, cells were washed twice in PBS and then placed into medium only, DMSO, or labeling medium (methionine minus DMEM supplemented with 1× glutamine and 5% dialyzed FBS) and pulse-labeled for 30 minutes at 37° C. with 0.5 mCi ^35S-Methionine (New England Nuclear) per p100 plate. Cells were washed twice in PBS and lysed with RIPA buffer supplemented with protease inhibitors. […] In the case of the pulse-chase experiment, two identically treated plates were placed into chasing medium (DMEM supplemented with 10% Fetal Clone I, 1× Glutamine and 3 mg/mL methionine), placed back into the 37° C. incubator and harvested after 1.5 and 3 hours. Immunoprecipitated samples were subjected to SDS-PAGE, enhanced in sodium salicylate, dried and exposed for 2-3 days before the film was quantified by densitometry.
The effect of HIF inhibitors on protein translation was determined by ^35S-methionine pulse labeling DMSO or compound treated cells. […] Pulse chase experiments confirm that this decrease is not attributable to any effect on the protein half-life (see FIG. 11).
(§1) To determine if PGJ2 decreases translation of the HIF2a message, the inventors evaluated the synthesis rate and stability of the newly synthesized HIF2a by an ^35S-methionine pulse chase experiment on PGJ2 or vehicle only DMSO treated 786-O cells. […] Loading control is 1/1000th of the cell lysate used in the respective immunoprecipitation directly loaded into an SDS-PAGE gel.

[2] = system: HIF-2a 5′-UTR Iron-Responsive Element (IRE); test: Luciferase reporters with HIF-2a 5′-UTR / IRE in 786-O cells; format: cell-based, human; settings: for dependence of effect on the IRE (wild-type or mutant 5′-UTR IRE reporter): 786-O luciferase reporter lines; for dependence of effect on HIF-2a 5′-UTR: HIF-2a promoter luciferase with or without 5′-UTR
[3] = system: putative IRE in HIF-1a 5′-UTR; test: Luciferase reporter with putative HIF-1a IRE; format: cell-based, human; settings: 786-O derived reporter lines, normoxia or 1% oxygen
Method: The consensus sequence of the loop and the mandatory 5′ cytosine bulge are highlighted with light blue circles. […] Duplicate plates of 786-O derived lines expressing the putative wild-type or mutant HIF-1a IRE were cultured in the presence of compound as described for FIG. 1, with the exception that one set was placed at 1% oxygen for 24 hours following the first day's medium-change. Cells were treated with M, medium only; D, DMSO; or compounds, as indicated at the following concentrations: 40, 40 μM; 41, 30 μM; 76, 10 μM; 77, 5 μM. […] CWR22R or Hep3B cells were treated with compound and subjected to hypoxia as described above. B-Actin is shown for loading control. Cells were treated with M, medium only; D, DMSO; or compounds, as indicated at the following concentrations: 40, 40 μM; 41, 30 μM; 76, 20 μM; 77, 7.5 μM.
The lack of a functional IRE in HIF-1a represents a clear dichotomy between the two HIF isoforms that allows their translation to be controlled by a different regulatory system.

[4] = system: Transferrin Receptor 1 (TfR1) mRNA; test: qRT-PCR for Transferrin Receptor 1 mRNA; settings: for Transferrin Receptor 1 mRNA expression: compound treated 786-O cells
[5] = target: IRP1 (Homo sapiens, UniProt P21399); test: HIF-2a activity (EGLN3 qRT-PCR) in IRP knock down lines; settings: 786-O IRP knock down lines
Sequence of IRP1 (P21399 whole entry): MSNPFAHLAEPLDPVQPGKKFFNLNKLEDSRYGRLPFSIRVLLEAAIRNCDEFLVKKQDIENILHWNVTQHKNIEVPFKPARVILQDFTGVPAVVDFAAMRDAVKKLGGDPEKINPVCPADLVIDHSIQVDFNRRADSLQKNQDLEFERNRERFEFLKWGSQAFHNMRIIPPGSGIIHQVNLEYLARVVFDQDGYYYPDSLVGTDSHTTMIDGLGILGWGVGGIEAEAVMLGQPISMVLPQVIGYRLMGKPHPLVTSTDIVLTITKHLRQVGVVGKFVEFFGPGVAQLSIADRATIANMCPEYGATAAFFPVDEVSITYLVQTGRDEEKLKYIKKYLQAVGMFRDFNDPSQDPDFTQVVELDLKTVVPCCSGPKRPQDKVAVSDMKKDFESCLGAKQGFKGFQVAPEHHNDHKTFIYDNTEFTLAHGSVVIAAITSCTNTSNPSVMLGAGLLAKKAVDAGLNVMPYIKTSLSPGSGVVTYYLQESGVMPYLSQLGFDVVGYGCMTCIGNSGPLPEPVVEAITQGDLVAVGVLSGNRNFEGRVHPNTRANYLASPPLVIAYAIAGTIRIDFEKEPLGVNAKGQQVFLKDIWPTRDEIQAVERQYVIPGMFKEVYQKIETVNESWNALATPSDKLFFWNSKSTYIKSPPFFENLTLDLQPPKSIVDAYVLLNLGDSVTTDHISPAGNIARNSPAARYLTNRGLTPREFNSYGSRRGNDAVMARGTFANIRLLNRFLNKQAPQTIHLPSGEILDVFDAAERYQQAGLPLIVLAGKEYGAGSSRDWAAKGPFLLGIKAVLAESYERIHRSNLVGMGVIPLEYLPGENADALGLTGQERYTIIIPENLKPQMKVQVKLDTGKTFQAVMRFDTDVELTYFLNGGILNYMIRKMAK

[6] = system: 786-O cells; test: Global translation (35S loading control, polysome analysis); format: cell-based, human
Method: DMSO-, rapamycin- or PGJ2-treated 786-O cells were harvested from 10 cm plates for each polysomal analysis. Confluent cells were harvested and lysed in 300 μL ofRSB [10 mmol/L NaCl, 10 mmol/L Tris-HCl (pH 7.4), 15 mmol/L MgCl2] containing 100 μg/mL heparin, 1.2% Triton X-100, and 0.12% deoxycholate. Nuclei were pelleted for 3 min in a microcentrifuge at 4° C. The 300-μL extract was layered over 11.5 mL of a 15% to 45% (wt/wt) sucrose gradient with a 0.5-mL cushion of 45% sucrose. The gradients were centrifuged at 37,000 rpm for 2.5 h in an SW 41 (Beckman) rotor at 4° C. After centrifugation, the A260 was continuously monitored and recorded across the gradient using a Foxy Jr. Density Gradient fractionation system and UA-6 UV/VIS Detector (ISCO, Inc.).
as §1

[7] = system: HIF-2a target genes; test: HIF-2a target gene expression (Glut-1 Western blot, VEGF and IGFBP3 ELISA, EGLN3 qRT-PCR); format: cell-based, human; settings: treated 786-O cells
Method: ID NO: 1) and [NT] […] ID NO: 3) and [NT] ID NO: 4) for […] ID NO: 5) and [NT] ID NO: 6) for Transferrin Receptor 1 ([…] ID NO: 7) and [NT] ID NO: 8) for […] ID NO: 9) and [NT] ID NO: 10) for […] ID NO. 11) and [NT] ID NO: 12) for EGLN3. […] ID NO: 13) and [NT] ID NO: 14). […] VEGF or IGFBP3 ELISA was performed on the conditioned supernatant using Quantikine immunoassay kits (R&D Systems, DVE00 for VEGF, DGB300 for IGFBP3). […] Hypoxia stabilized HIF-2a in VHL-reconstituted WT8 cells, but treatment with compounds diminished hypoxia-induced HIF-2a expression (FIG. 3C).

[8] = system: Fli1-GFP fish embryo; test: Inhibition of vascularization in fish embryo; settings: 3microM; treated at 20 hpf, imaged 48-50 hpf

C/C(=C\c1ccccc1)C(=O)CCN(C)C.Cl [Compound 40, 5-(dimethylamino)-2-methyl-1-phenyl-1-penten-3-one hydrochloride]
HIF-2a mRNA translation (newly synthesized HIF-2a protein) [1]: decrease HIF-2a mRNA translation | dependence of effect on the IRE (wild-type or mutant 5′-UTR IRE reporter) [2]: work via the Iron-Responsive Element (IRE) | dependence of effect on HIF-2a 5′-UTR [2]: dependent upon presence of 5′-UTR | effect on putative IRE in HIF-1a 5′-UTR [3]: do not affect putative IRE in HIF-1a 5′-UTR | Transferrin Receptor 1 mRNA expression [4]: increase expression of Transferrin Receptor 1 mRNA

COc1ccc(O)c(/C=C/C(=O)c2c(O)cc(C)oc2=O)c1 [Compound 41, 4-hydroxy-3-[3-(2-hydroxy-5-meoxyphenyl)acryloyl]-6-methyl-2H-pyran-2-one]
HIF-2a mRNA translation (newly synthesized HIF-2a protein) [1]: decrease HIF-2a mRNA translation | dependence of effect on the IRE (wild-type or mutant 5′-UTR IRE reporter) [2]: work via the Iron-Responsive Element (IRE) | dependence of effect on HIF-2a 5′-UTR [2]: dependent upon presence of 5′-UTR | effect on putative IRE in HIF-1a 5′-UTR [3]: do not affect putative IRE in HIF-1a 5′-UTR | Transferrin Receptor 1 mRNA expression [4]: increase expression of Transferrin Receptor 1 mRNA

COC(=O)c1sccc1N/N=C(/C#N)S(C)(=O)=O [Compound 76, methyl 3-{2-[cyano(methylsulfonyl)methylene] hydrazino}thiophene-2-carboxylate]
HIF-2a mRNA translation (newly synthesized HIF-2a protein) [1]: decrease HIF-2a mRNA translation | dependence of effect on the IRE (wild-type or mutant 5′-UTR IRE reporter) [2]: work via the Iron-Responsive Element (IRE) | dependence of effect on HIF-2a 5′-UTR [2]: dependent upon presence of 5′-UTR | effect on putative IRE in HIF-1a 5′-UTR [3]: do not affect putative IRE in HIF-1a 5′-UTR | TfR1 mRNA stability ([4]; 786-O cells following addition of Actinomycin D): decreases TfR1 mRNA stability | Transferrin Receptor 1 mRNA expression [4]: increase expression of Transferrin Receptor 1 mRNA | effect on HIF-2a activity when IRP1 is knocked down [5]: inhibition of IRP1 is sufficient to block effect of compounds on HIF-2a activity

CC1(C)CC(=O)C=C(Sc2ccc(C#N)cc2[N+](=O)[O-])S1 [Compound 77, 4-[(2,2-dimethyl-4-oxo-3,4-dihydro-2H-thiin-6-yl)thio]-3-nitrobenzonitrile]
HIF-2a mRNA translation (newly synthesized HIF-2a protein) [1]: decrease HIF-2a mRNA translation | dependence of effect on the IRE (wild-type or mutant 5′-UTR IRE reporter) [2]: work via the Iron-Responsive Element (IRE) | dependence of effect on HIF-2a 5′-UTR [2]: dependent upon presence of 5′-UTR | effect on putative IRE in HIF-1a 5′-UTR [3]: do not affect putative IRE in HIF-1a 5′-UTR | Transferrin Receptor 1 mRNA expression [4]: increase expression of Transferrin Receptor 1 mRNA | effect on HIF-2a activity when IRP1 is knocked down [5]: inhibition of IRP1 is sufficient to block effect of compounds on HIF-2a activity

CCCCC/C=C/C=C1/C(=O)C=C[C@@H]1C/C=C\CCCC(=O)O [PGJ2, 15-deoxy-Δ^12,14-prostaglandin J2]
HIF-2a mRNA translation (newly synthesized HIF-2a protein) [1]: significantly decrease the amount of protein translated from the mRNA without decreasing the half-life of the protein | effect on synthetic 5′-UTR stem loop reporter (CMV-SL over CMV) ([2]; 786-O cells, 10 μM): no effect on the synthetic 5′-UTR element | dependence of effect on the IRE (wild-type or mutant 5′-UTR IRE reporter) [2]: completely abolished PGJ2 sensitivity | dependence of effect on HIF-2a 5′-UTR [2]: decreased the luciferase activity derived from the UTR-containing plasmid but not the plasmid driven by the HIF promoter alone | global cellular translation (35S-methionine loading control) ([6]; 10 μM): does not globally decrease cellular translation | ribosomes actively engaged in translation (polysome analysis) ([6]; 24 hours): little effect on the number of ribosomes actively engaged in translation | expression of HIF-2a target genes (Glut-1, VEGF, IGFBP3, EGLN3) [7]: decrease | Totals: Completed [8]: 47 | Totals: stalled [8]: 39 | completed of total, per animal [8]: 6 of 17 (2×) and 17 of 18 and 9 of 17 (2×)
